The nature of data set [1]: Unbound fraction in human plasma (rapid equilibrium dialysis). Format: in vitro ADME. The method, then: (§1) The plasma or liver microsomal protein bindings were performed using a rapid equilibrium dialysis device and cellulose membranes with a molecular weight cutoff of 8000 (Thermo Scientific, Rockford, IL, USA). The rat and human plasma samples (200 μL) containing SPN at 10 and 50 μM, respectively, were dialyzed against a dialysis buffer, phosphate-buffered saline (PBS, 400 μL). The loaded dialysis plate was covered with sealing tape, placed on an orbital shaker at approximately 200 rpm, and incubated at 37 °C for 4 h. Thereafter, samples (100 μL) from both PBS and plasma chambers were collected and mixed with an equal volume of blank plasma and PBS, respectively. All samples were stored at −80 °C until LC-MS/MS analysis. The unbound fraction of SPN in human (or rat) plasma was calculated by dividing the SPN concentration in PBS by that in plasma.

The target of the next data set is T1, CYP1A2 (Homo sapiens, UniProt P05177).
T1 construct: tissue Corning Life Sciences; host or cells: pooled human liver microsomes, 150 donors
T1 sequence (P05177 1-516): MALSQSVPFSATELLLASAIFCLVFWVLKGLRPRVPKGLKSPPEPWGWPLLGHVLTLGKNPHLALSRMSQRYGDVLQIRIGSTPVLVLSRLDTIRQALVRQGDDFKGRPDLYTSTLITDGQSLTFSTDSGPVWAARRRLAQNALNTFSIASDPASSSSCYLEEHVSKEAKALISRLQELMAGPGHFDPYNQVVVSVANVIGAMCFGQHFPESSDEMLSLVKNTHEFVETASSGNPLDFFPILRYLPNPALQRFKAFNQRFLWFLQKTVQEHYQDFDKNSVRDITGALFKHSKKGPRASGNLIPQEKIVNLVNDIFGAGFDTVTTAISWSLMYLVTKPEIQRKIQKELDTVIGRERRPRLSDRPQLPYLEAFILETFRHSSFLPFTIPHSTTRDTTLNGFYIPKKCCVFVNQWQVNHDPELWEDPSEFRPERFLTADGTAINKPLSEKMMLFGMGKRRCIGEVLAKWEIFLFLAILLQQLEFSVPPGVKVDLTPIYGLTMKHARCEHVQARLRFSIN
Put plainly: Reversible CYP1A2 inhibition, cocktail assay (phenacetin O-deethylase) in human liver microsomes. Format: biochemical. The procedure:
(§2) The inhibitory effects of SPN on CYP1A2, CYP2A6, CYP2B6, CYP2C8, CYP2C9, CYP2C19, CYP2D6, CYP2E1, and CYP3A4 were evaluated in pooled human liver microsomes through the use of specific CYP probe substrates (cocktail assay), as previously described with a slight modification. Concentrations of each CYP probe in Table 1 were used close to their reported Km values.
(§3) Briefly, a 90-µL incubation mixture, including pooled human liver microsomes (final concentration 0.1 mg/mL), 50 mM phosphate buffer (pH 7.4), each CYP-probe substrate cocktail set, and SPN (0–50 μM), was pre-incubated for 5 min at 37 °C. SPN was dissolved in methanol and spiked into the incubation mixture to a final concentration of 0.5% methanol. […]
(§4) The IC50 values were calculated via nonlinear least-squares regression analysis from logarithmic plots of inhibitor concentration versus percentage of activity remaining after inhibition, using SigmaPlot (ver. 14.0; Systat Software Inc, Chicago, IL, USA). The Ki values were determined from the equations for a single substrate single inhibitor model and the software available in the SigmaPlot Enzyme Kinetics module. Competitive, non-competitive, uncompetitive, or mixed inhibition models were evaluated and ranked according to the best fit based on Akaike Information Criterion (AIC) values. […]
In general terms: Liver microsomes are a subcellular fraction often used to study metabolism.

The target in a further data set is T2, CYP2D6 (Homo sapiens, UniProt P10635).
T2 construct: tissue Corning Life Sciences; host or cells: pooled human liver microsomes, 150 donors
The data set can be described thus: Reversible CYP2D6 inhibition, cocktail assay (dextromethorphan O-demethylase) in human liver microsomes. It is filed as biochemical. The procedure: as §2, §3, §4

A further data set concerns the target T3, CYP2C9 (Homo sapiens, UniProt P11712).
T3 construct: tissue Corning Life Sciences; host or cells: pooled human liver microsomes, 150 donors
The data set can be described thus: Inhibition of other CYP2C9-specific pathways (diclofenac 4′-hydroxylation, losartan oxidation) in human liver microsomes. Format: biochemical. The procedure:
The auto-optimized mass transitions were m/z 312 > 231 and m/z 437 > 207.1 for quantification of 4′-hydroxydiclofenac and losartan carboxylic acid, respectively. HPLC conditions were the same as those in the cocktail assay.
The IC50 values were calculated via nonlinear least-squares regression analysis from logarithmic plots of inhibitor concentration versus percentage of activity remaining after inhibition, using SigmaPlot (ver. 14.0; Systat Software Inc, Chicago, IL, USA). The Ki values were determined from the equations for a single substrate single inhibitor model and the software available in the SigmaPlot Enzyme Kinetics module. Competitive, non-competitive, uncompetitive, or mixed inhibition models were evaluated and ranked according to the best fit based on Akaike Information Criterion (AIC) values. For visual inspection, the data were presented as Dixon plots.

Data set [2] is described as follows: Unbound fraction in rat plasma (rapid equilibrium dialysis). Format: in vitro ADME. The procedure:
as §1
(In equilibrium dialysis free small molecules cross a membrane that holds back macromolecules.)

In the next data set the target is T4, CYP2C8 (Homo sapiens, UniProt P10632).
T4 construct: tissue Corning Life Sciences; host or cells: pooled human liver microsomes, 150 donors
T4 sequence (P10632 1-490): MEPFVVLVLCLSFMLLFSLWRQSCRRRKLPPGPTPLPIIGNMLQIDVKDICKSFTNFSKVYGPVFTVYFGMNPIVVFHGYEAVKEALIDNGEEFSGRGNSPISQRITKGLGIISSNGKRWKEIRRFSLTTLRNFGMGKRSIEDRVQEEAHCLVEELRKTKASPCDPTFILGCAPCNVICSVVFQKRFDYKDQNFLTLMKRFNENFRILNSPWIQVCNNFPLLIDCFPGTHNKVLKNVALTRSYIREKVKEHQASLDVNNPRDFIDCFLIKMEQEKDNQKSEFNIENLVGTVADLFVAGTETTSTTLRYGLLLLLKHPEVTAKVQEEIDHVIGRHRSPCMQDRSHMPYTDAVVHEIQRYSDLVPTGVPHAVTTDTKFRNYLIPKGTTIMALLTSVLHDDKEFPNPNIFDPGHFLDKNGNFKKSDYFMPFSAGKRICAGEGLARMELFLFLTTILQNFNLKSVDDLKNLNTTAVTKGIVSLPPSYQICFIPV
The data set can be described thus: Reversible CYP2C8 inhibition, cocktail assay (rosiglitazone p-hydroxylase) in human liver microsomes. Format: biochemical. Conditions: human liver microsomes 0.1 mg/mL, rosiglitazone probe, n = 3. The procedure: as §2, §3, §4

The mark [3] stands for this setting: at the highest tested concentration (50 μM).

Like-named read-outs stand apart in the source and are kept apart here.

What is called IC50 is the point on the concentration scale where inhibition reaches its midpoint.

T2 sequence (P10635 whole entry): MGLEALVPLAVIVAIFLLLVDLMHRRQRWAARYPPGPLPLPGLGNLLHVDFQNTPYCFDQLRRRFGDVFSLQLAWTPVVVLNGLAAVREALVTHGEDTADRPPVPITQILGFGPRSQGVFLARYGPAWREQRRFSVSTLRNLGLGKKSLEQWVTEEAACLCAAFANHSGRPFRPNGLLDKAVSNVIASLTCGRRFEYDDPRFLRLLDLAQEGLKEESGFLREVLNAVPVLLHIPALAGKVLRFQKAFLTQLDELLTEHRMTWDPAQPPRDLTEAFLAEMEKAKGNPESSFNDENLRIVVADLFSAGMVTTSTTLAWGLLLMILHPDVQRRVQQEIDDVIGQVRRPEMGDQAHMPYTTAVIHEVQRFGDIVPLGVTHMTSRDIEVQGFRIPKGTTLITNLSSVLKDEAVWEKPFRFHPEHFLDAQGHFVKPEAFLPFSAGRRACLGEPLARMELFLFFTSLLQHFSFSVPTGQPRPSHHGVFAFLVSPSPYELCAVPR
T3 sequence (P11712 whole entry): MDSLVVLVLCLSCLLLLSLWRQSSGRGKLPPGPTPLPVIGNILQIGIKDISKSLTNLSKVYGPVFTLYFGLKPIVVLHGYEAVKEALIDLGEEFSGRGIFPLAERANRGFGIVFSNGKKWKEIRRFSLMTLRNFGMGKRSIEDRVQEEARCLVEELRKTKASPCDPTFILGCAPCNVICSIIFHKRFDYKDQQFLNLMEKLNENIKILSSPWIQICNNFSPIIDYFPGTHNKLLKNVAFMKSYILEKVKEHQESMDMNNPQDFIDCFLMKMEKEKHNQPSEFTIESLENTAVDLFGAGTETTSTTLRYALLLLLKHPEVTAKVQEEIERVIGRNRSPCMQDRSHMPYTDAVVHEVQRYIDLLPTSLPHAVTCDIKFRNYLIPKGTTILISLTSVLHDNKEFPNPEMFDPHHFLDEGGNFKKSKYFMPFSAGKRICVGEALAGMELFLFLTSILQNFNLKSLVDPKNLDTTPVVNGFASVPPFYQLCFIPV

For the molecule `CC(C)=CCc1cc([C@@H]2CC(=O)c3ccc(O)c(CC=C(C)C)c3O2)cc(CC=C(C)C)c1O` [SPN, (‒)-Sophoranone], the fraction unbound at 4 h, 10 µM in data set [1] (human, human plasma, 10 μM, 37 °C, 4 h, n = 3, read-out: free fraction in human plasma) was 0.000457 ± 6.12e-05; in data set [2] (10 μM, 37 °C, 4 h, n = 3, read-out: free fraction in rat plasma) it was 0.00038 ± 0.000102. Also, the fraction unbound at 4 h, 50 µM was 0.000927 ± 0.0004 in data set [1] (human, human plasma, 50 μM, 37 °C, 4 h, n = 3, read-out: free fraction in human plasma) and 0.000531 ± 0.000149 in data set [2] (50 μM, 37 °C, 4 h, n = 3, read-out: free fraction in rat plasma). Moreover, the fraction unbound at 4 h was less than 0.001 in data set [1] (human, human plasma, 10 and 50 μM, read-out: plasma protein binding, human); 0.000574 in data set [1] (mean over human and rat plasma in the range of 10 and 50 μM, read-out: mean unbound fraction in plasma); less than 0.001 in data set [2] (10 and 50 μM, read-out: plasma protein binding, rat). For the same molecule, the “residual enzyme activity, CYP1A2” value at CYP1A2 (setting [3]) is “greater than 80%”. The 50% inhibitory concentration (IC50) against CYP1A2 (human liver microsomes 0.1 mg/mL, cocktail assay, phenacetin probe, n = 3) was greater than 50 µM; against CYP2D6 (human liver microsomes 0.1 mg/mL, cocktail assay, dextromethorphan probe, n = 3), greater than 50 µM; against CYP2C9 (IC50, CYP2C9-catalyzed diclofenac 4′-hydroxylation, diclofenac 5 μM), 0.879 ± 0.0888 µM; at CYP2C9 (losartan 5 μM, read-out: IC50, CYP2C9-catalyzed losartan oxidation), 0.455 ± 0.0486 µM; against CYP2C8, 13.6 ± 3.15 µM. For the same molecule, the “residual enzyme activity, CYP2D6” value at CYP2D6 (setting [3]) was 53.9 ± 3.53%.
